From US11484529B2, “Desmethylanethole trithione derivatives for the treatment of diseases linked to mitochondrial reactive oxygen species (ROS) production” (OP2 Drugs, priority 2017, dated 2022)

Tests used:
[1] = cited from earlier work
site IIIQO = molecular target: T1, site IIIQO (Rattus norvegicus, UniProt P00159+P20788); test: Mitochondrial ROS/H2O2 production (Amplex Red/HRP) after rotenone, antimycin A, myxothiazol; type: biochemical; settings: AOL 5 to 80 μM
T1 construct: from tissue; host or cells: mitochondria isolated from rat heart
Description: Rates of ROS/H2O2 production from heart mitochondria were assessed through the oxidation of the colorless, non-fluorescent indicator Amplex Red in the presence of exogenous horseradish peroxidase (HRP, EC 1.11.1.7, Sigma). H2O2 reacts with Amplex Red in a 1:1 stoichiometry, yielding the fluorescent compound resorufin (excitation: 560 nm; emission: 585 nm) which is stable once formed. Fluorescence was measured continuously with a spectro-fluorometer equipped with temperature control and stirring (SAFAS Xenius, Monaco). Isolated mitochondria (0.1 mg/mL) were incubated in the same experimental buffer than previously, supplemented with 15 μM Amplex Red and 10 μg/mL HRP. Glutamate (5 mM)/malate (2.5 mM) together with succinate (5 mM) were used as complex I and complex II substrates, respectively. Experiments were conducted under non-phosphorylating conditions in the presence of 15 μM atractyloside, i.e., under state IV conditions where mitochondrial membrane is maximal. […]
Rates of ROS/H2O2 production from heart mitochondria were assessed through the oxidation of the colorless, non-fluorescent indicator Amplex Red in the presence of exogenous horseradish peroxidase (HRP, EC 1.11.1.7, Sigma). […] Fluorescence was measured continuously with a spectro-fluorometer equipped with temperature control and stirring (SAFAS Xenius, Monaco). […]

[2] = tested on: isolated rat heart mitochondria; test: Mitochondrial ATP synthesis (phosphorylation rate, pH electrode); type: biochemical
Description: Male Wistar rats (250-325 g; obtained from Janvier Labs, Le Genest-Saint-Isle, France) were killed by stunning and cervical dislocation, and the heart was quickly removed and washed in cold isolation medium containing 100 mM sucrose, 180 mM KCl, 50 mM Tris, 5 mM MgCl2, 10 mM EDTA, and 0.1% (w/v) defatted BSA (pH 7.2).
Isolation of heart mitochondria was performed in a cold chamber. Before homogenization, hearts (about 1.5 g) were minced with scissors and treated for 5 minutes in 5 mL of the same medium supplemented with protease (2 mg of bacterial proteinase type XXIV per mL of isolation buffer) with stirring. The tissue suspension was poured into a 50-mL glass Potter homogenizer, diluted with 20 mL of isolation buffer, then homogenized for 3 minutes using a motorized Teflon pestle. The homogenate was filtered through bolting cloth (Sefar Nitex) to remove debris, and centrifuged at 8,000 g for 10 minutes. The resulting pellet was rinsed with 5 mL of isolation buffer, resuspended in 25 ml of the same buffer, then subjected to low speed centrifugation (400 g) for 8 minutes. […] Protein concentration was determined by the Bradford method (Sigma, kit # B6916) using BSA as standard. […]
ATP synthesis was measured under the same conditions using a high sensitivity pH electrode (Metrohm) as previously described (Gouspillou et al., 2014. Aging Cell. 13(1):39-48).

T1 sequence (P00159 whole entry): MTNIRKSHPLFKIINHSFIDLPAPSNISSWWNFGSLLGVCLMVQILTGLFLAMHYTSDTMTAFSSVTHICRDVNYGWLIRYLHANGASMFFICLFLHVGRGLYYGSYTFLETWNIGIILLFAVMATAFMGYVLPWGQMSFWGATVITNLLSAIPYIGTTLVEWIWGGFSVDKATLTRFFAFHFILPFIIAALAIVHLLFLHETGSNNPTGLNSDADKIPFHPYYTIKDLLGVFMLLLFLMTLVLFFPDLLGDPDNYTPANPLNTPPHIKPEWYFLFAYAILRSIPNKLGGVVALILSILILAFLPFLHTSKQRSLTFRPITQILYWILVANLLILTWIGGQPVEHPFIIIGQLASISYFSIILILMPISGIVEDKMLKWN
T1 sequence (P20788 79-274 limits assumed): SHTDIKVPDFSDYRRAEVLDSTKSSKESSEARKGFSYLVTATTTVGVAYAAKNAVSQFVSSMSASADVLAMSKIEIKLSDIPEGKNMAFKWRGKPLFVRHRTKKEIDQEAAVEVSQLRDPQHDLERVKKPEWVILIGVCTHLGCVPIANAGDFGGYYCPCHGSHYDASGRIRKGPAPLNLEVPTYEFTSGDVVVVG
T1 sequence (P20788 1-78 partner limits assumed): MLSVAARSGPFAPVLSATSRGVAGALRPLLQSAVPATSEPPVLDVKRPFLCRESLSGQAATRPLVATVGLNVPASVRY
T1 sequence (Q68FY0 35-480 partner): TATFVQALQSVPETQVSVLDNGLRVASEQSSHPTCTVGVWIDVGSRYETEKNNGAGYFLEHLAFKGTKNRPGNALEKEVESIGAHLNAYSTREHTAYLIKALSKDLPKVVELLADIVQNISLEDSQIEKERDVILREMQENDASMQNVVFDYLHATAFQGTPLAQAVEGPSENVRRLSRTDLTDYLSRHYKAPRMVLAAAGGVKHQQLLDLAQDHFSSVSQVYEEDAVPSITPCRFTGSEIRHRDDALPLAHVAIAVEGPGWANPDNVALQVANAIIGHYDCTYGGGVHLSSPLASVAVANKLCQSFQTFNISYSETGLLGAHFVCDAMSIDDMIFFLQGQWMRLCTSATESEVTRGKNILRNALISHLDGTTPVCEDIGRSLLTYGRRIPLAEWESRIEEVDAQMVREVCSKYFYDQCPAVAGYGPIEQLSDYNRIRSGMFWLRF
T1 sequence (P32551 15-452 partner): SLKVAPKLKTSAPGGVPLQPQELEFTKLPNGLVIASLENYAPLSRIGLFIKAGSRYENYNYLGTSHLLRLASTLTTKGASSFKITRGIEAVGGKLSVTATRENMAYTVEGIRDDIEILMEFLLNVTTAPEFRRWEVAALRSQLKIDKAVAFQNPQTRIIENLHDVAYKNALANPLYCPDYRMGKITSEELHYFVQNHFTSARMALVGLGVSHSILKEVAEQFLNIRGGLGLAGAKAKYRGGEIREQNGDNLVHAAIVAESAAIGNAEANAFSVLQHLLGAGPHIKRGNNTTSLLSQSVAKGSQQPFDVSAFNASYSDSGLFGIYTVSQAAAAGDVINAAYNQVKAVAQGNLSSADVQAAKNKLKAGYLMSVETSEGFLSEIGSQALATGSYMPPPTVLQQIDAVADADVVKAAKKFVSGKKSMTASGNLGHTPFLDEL

Structure (SMILES)	bioavailability [1]	effect on ROS/H2O2 production under the other conditions (site IIIQO)	concentration that completely abolishes phosphorylation rate [2] [µM]	concentrations that do not modify ATP synthesis [2]
COc1ccc(-c2cc(=S)ss2)cc1 [AOL, 5-(4-methoxyphenyl)-3H-1,2-dithiole-3-thione]	known to be very short	no statistical differences were observed	–	–
Oc1ccc(-c2cc(=S)ss2)cc1 [AOX, 5-(4-hydroxyphenyl)-3H-1,2-dithiole-3-thione]	–	–	60	lower than 20 μM
